# Tests used:
# [1] = system: over 100 cardiovascular disease related targets, including hydroxy-methylglutaryl-coenzyme A (HMO CoA) reductase; assay: off-target screen assays; details: concentration of 10 μM
# whole blood sEH activity = target: T1, whole blood sEH activity (Mus musculus, UniProt P34914); assay: whole blood sEH activity in apoE KO mice, dosing with drinking water; assay type: in vivo; details: treatment with drinking water
# T1 construct: from tissue; host or cells: whole blood of apoE KO mice
# T1 sequence (P34914 1-554): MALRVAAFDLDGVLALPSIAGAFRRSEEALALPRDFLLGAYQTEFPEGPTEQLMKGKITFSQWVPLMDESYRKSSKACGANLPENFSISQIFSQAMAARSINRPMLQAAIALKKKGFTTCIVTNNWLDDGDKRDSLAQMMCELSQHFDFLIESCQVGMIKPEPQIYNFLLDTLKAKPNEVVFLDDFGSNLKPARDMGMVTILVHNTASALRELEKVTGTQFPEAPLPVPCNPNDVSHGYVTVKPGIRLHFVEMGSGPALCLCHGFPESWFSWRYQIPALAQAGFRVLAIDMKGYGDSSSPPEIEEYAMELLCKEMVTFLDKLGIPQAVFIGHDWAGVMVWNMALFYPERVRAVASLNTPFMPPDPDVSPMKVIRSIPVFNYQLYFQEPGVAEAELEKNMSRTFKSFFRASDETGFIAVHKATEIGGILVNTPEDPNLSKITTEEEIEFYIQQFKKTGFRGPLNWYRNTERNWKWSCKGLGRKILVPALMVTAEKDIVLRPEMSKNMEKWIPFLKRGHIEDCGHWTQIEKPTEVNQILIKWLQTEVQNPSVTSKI
# pharmacokinetics in mice = assay type: in vivo; details: mouse, plasma
# sEH [2] = target: T2, sEH (Homo sapiens, UniProt P34913); assay: sEH enzymatic assay (Compound 6); assay type: biochemical; details: read-out: IC50 for inhibition of sEH, enzymatic assay
# T2 sequence (P34913 1-555): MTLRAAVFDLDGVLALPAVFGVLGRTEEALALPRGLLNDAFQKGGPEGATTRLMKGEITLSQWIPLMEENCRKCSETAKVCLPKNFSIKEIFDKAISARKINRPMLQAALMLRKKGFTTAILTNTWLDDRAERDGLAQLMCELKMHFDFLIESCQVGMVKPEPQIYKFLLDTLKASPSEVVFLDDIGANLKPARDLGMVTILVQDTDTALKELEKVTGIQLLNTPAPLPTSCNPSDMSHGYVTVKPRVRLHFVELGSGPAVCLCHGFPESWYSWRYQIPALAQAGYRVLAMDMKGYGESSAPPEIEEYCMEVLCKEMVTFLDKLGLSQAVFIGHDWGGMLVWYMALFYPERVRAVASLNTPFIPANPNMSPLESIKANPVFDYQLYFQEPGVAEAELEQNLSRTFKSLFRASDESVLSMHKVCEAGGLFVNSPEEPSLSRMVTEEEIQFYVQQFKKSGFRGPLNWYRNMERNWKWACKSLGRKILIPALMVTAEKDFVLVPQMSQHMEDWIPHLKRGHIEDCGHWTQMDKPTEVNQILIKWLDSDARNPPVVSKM
# PPARγ = target: T3, PPARγ (Homo sapiens, UniProt P37231); assay: standard PPARγ activation assay; assay type: cell-based; details: relative to standard reference
# T3 sequence (P37231 1-505): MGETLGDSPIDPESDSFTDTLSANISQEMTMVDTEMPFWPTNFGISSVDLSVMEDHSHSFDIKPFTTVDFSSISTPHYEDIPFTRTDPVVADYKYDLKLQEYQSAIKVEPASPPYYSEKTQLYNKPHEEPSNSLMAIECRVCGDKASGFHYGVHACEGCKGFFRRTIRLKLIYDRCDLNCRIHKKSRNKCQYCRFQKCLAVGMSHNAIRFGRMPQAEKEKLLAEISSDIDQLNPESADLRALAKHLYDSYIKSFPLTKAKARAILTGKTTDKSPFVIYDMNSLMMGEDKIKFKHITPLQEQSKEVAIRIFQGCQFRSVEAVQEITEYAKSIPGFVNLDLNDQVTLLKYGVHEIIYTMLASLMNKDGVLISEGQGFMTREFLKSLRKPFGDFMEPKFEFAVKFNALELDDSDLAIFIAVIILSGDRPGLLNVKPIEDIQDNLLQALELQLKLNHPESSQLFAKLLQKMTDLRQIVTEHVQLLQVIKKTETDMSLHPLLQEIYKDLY
# apoE deficient mice = assay: Model 3: angiotensin II-infused apoE deficient mice with carotid ligation; assay type: in vivo
# Method: All protocols were approved by the institutional animal care and use committee at Arête Therapeutics. Six-month old male apoE deficient mice (The Jackson Laboratory, Bar Harbor, Me.) fed a normal chow were used in this study. Baseline blood pressure and body weight were measured before surgery. Animals were anesthetized by inhalation of 2% isoflurane. The left common carotid artery carefully dissected via a midline neck incision under a dissecting microscope, and the left common carotid artery was ligated with a 6-0 silk ligature just proximal to its bifurcation. At the time of ligation, animals were subcutaneously implanted with a minipump (model 2004, Durect Corp., Cupertino, Calif.) filled with Ang II (1.44 mg/Kg/day, Phoenix Pharmaceuticals, Burlingame, Calif.). The animals were randomly divided into 2 groups; Vehicle: drinking water containing 5% hydroxypropyl-beta-cyclodextrin (HPBCD) or Compound 6: drinking water containing 1.5 mg/ml Compound 6 in 5% HPBCD. Each experimental group included 11 animals. After 4 weeks of Ang TI infusion, systolic blood pressure was measured in conscious mice using a tail-cuff system (Kent Scientific Corporation, Torrington, Conn.), and the animals were euthanized. Blood samples were collected via cardiac puncture for the measurement of a serum cholesterol profile (IDEXX Veterinary Services, West Sacramento, Calif.) and serum inflammatory panel (Murigenics, Hayward, Calif.) using a mouse cytokine/chemokine panel kit (Millipore, Billerica, Mass.), and tissues were removed for analysis.
# All results are presented as the mean and standard error (SEM). Comparison between the vehicle and Compound 6 treatment groups was performed using Student's t test. The percentage of mice that developed AAA was compared between the two groups using X^2 test.
# sEH [3] = target: T2, sEH; assay: sEH cell based assay (Compound 6); details: read-out: IC50 for inhibition of sEH, cell based assay
# sEH [4] = target: T2, sEH; assay: sEH inhibition, fluorescent assay with CMNPC substrate (percent inhibition and IC50); assay type: biochemical; details: Concentration 2000 nM
# Method: The substrate for the reaction was:
# Therefore, well A2 would refer to a well in the first row and second column of the plate.
# In a black 96 well plate, all the wells are filled with 150 μL of buffer A (Buffer A: Bis/Tris HCl, 25 mM, pH 7.0 plus 0.1 mg/mL BSA). DMSO (2 microliters) was added in well A2 and A3, and then was added 2 μL of inhibitor solution in A1 and A4 through A12. […] The plate was incubated for 5 minutes in the plate reader at 30° C. During incubation, the working solution of substrate was prepared by mixing 3.68 mL of buffer A with 266 μL of 0.5 mM substrate solution. At t=0, 30 μL of working substrate solution was added and readings were started ([S]final: 5 μM).
compound,measurement,setting,value
"O=C(Nc1ccc(OC(F)(F)F)cc1)NC1CCN(C(=O)c2cccnc2)CC1 [Compound 6, 1-(1-nicotinoylpiperidin-4-yl)-3-(4-(trifluoromethoxy)phenyl)urea]",activity in off-target screen assays,[1],inactive
same,average plasma concentration,whole blood sEH activity,21 ± 1.8 µg/mL
same,bioavailability,pharmacokinetics in mice; AUC oral dose relative to AUC intravenous dose,> 100%
same,half-life,"pharmacokinetics in mice; intravenous administration, read-out: terminal half life (converted)",~4 h
same,IC50,sEH [2],1.6 nM
same,PPARγ activation relative to troglitzone (100%),PPARγ,11%
same,HDL levels compared to vehicle,apoE deficient mice; 4 weeks,significantly higher
same,"effect on blood pressure, body weights, and food consumption",apoE deficient mice; 4 weeks,no statistical significant effect
same,ratio of LDL/HDL relative to vehicle group,apoE deficient mice; 4 weeks,only half of that in vehicle group
same,total cholesterol level compared to vehicle,apoE deficient mice; 4 weeks,significantly lower
same,triglyceride and glucose levels compared to vehicle,apoE deficient mice; 4 weeks,no significant difference
same,Ratio of LDL/HDL,"apoE deficient mice; 4 weeks, vehicle 19.6 ± 1.5",10.5 ± 1.5
same,body weight,"apoE deficient mice; 4 weeks, vehicle 27 ± 0.7",28 ± 0.6 g
same,HDL,"apoE deficient mice; 4 weeks, vehicle 32 ± 3",46 ± 4 mg/dL
same,Blood Glucose,"apoE deficient mice; 4 weeks, vehicle 216 ± 22",185 ± 17 mg/dL
same,Triglyceride,"apoE deficient mice; 4 weeks, vehicle 301 ± 59",258 ± 47 mg/dL
same,LDL,"apoE deficient mice; 4 weeks, vehicle 624 ± 70",438 ± 28 mg/dL
same,Blood Pressure (mmHg) Baseline,"apoE deficient mice; Baseline, before surgery and treatment",101 ± 2 mmHg
same,Blood Pressure (mmHg) End,"apoE deficient mice; End, after 4 weeks of Ang II infusion, vehicle 137 ± 3",130 ± 4 mmHg
same,atherosclerosis progression and aneurysm formation,apoE deficient mice; apoE deficient mice chronically treated with Ang II,attenuated
same,IC50,sEH [3],8.9 nM
same,inhibition at 2 µM,sEH [4],100%
